Assay results from publication PMC9862026, “In Vivo Toxicity, Redox-Modulating Capacity and Intestinal Permeability of Novel Aroylhydrazone Derivatives as Anti-Tuberculosis Agents” (Pharmaceutics, 2022).

Experiments:
[1] = test system: MDA in the liver homogenate; experiment: Endogenous MDA (spontaneous lipid peroxidation) in liver homogenate; conditions: 50 mg/kg oral, 14 days; vs controls
Method: On day 14, the animals were anesthetized with ketamine/ xylazine and decapitated. […] Livers were taken to assess oxidative stress and antioxidant status in the study groups.
For the in vivo experiments (spontaneous lipid peroxidation) the postnuclear homogenates of the liver (mg protein/mL) in 0.15 M KCl—10 mM potassium phosphate buffer, pH 7.2, were heated for 15 min at 100 °C in the presence of 40% TCA + 5N HCl + 2% thiobarbituric acid (2:1:2 v/v) for color developing. After cooling and centrifugation, the absorbance was read at 532 nm against dd H2O as blank. The values were expressed in nmoles malondialdehyde (MDA) per mg protein, with a molar extinction coefficient of 1.56 × 10^−5 M^−1cm^−1.

[2] = test system: Glutathione peroxidase in the liver supernatant; experiment: Glutathione peroxidase activity in liver supernatant; type: in vivo, mice; conditions: 50 mg/kg oral, 14 days
Method: (§1) Serum biochemical parameters were assessed as follows.
The Glutathione Peroxidase Cellular Activity Assay Kit (Cat. No. CGP1) and Glutathione Reductase Assay Kit (Cat. No. GRSA) were used to measure the activities of glutathione-related enzymes.

liver of mice = experiment: Pathomorphological evaluation of liver; type: in vivo; conditions: 50 mg/kg oral, 14 days
Method: (§2) Tissues from the liver, kidney and small intestine of the mice from all groups were collected post-mortem and fixed in 10% buffered formalin for 48 h. fixed tissues were processed according to the classical paraffin method. The cutting of the paraffin blocks was performed using a paraffin rotary microtome Leica RM 2255 at a slice thickness of 5 µm. The sections were stained with hematoxylin and eosin (H&E). Histological changes were examined and imaged with a Leica DM2500 light microscope equipped with a Leica MC120HD digital camera and also with Euromex BioBlue (Belgium) digital camera

kidney of mice = experiment: Pathomorphological evaluation of kidney; type: in vivo; conditions: 50 mg/kg oral, 14 days
Method: as §2

[3] = test system: GSH in the liver homogenate; experiment: Total glutathione in liver homogenate; type: in vivo, mice; conditions: 50 mg/kg oral, 14 days
Method: as §1
According to Rahman et al. total glutathione (tGSH) concentration was determined. In the reaction between GSH and 5,5′-dithiobis-2-nitrobenzoic acid (DTNB), the rate of formation of colored substance, 5′-thio-2-nitrobenzoic acid (TNB), is proportional to the concentration of tGSH in the sample. The maximal absorption of colored TNB is at 412 nm. The concentration of tGSH was calculated using oxidized glutathione as a reference standard and was expressed as ng/mg protein.

male Jcl:ICR mice [4] = experiment: Sub-acute toxicity, 14 days oral: complete blood count; type: in vivo; conditions: 50 mg/kg oral
Method: (§3) The sub-acute toxicity effects were assessed after repeated (14 days) oral administration to male mice. […] The experiments were performed with male Jcl: ICR mice at the same age of 6 weeks and weighing approximately 30–35 g, in which the substances were administered daily for 14 days orally with a gastric tube at approximately the same time of the day. The compounds were solubilized with Tween 80 (0.1%) in distilled water and administered orally in a volume of 0.1 mL per 10.0 g. Animals were observed daily for behavioral changes and signs of toxicity. All results were compared with the positive control isoniazid (INH).
as §1

[5] = test system: SOD in the liver supernatant; experiment: SOD activity in liver supernatant; type: in vivo, mice; conditions: 50 mg/kg oral, 14 days
Method: as §1
SOD activity was measured by the method of Beauchamp and Fridovich. Superoxide anion radicals generated photochemically for 7 min, reduced nitro blue tetrazolium (NBT) obtaining insoluble formazan in violet color. The reduction of NBT inhibition in the presence of different enzyme concentrations was read at 560 nm vs. control of reaction mixture. The amount of enzyme performing 50% inhibition of NBT reduction is accepted as a unit of activity (U/mg protein).

male Jcl:ICR mice [6] = experiment: Sub-acute toxicity, 14 days oral: serum biochemical parameters; type: in vivo; conditions: 50 mg/kg oral
Method: as §3, §1

[7] = GIT PAMPA intestinal permeability (Double-Sink protocol); type: in vitro ADME
Method: The intestinal permeability of isoniazid and the newly synthesized derivatives was measured by PAMPA Permeability Analyzer (pION Inc., Billerica, MA, USA) following the Double-Sink™ Protocol. PAMPA assay kits were purchased from pION Inc. According to the protocol, the donor compartment of the “sandwich” is loaded with compound solutions adjusted to three different pH values of 5.0, 6.2, and 7.4. The acceptor wells are filled with an ASB of fixed pH 7.4, containing chemical scavengers that simulate the effect of serum proteins. In the central circulation, pH 7.4 is constantly maintained, and the blood flow, as well as the serum proteins, support the one-directional process of absorption. Reference spectra (ketoprofen, antipyrine, and ranitidine) were used to assess the transfer of compounds from the donor to the acceptor phase. The permeation ability was estimated based on permeability coefficient values Pe (10^−6 cm/s), presented in logarithmic terms (−logPe). Values of −logPe < 5 were accepted as indicative of highly permeable compounds. When −logPe acquired values between 5 and 6, compounds were considered as medium permeable, and if −logPe > 6–as low permeable. Experiments were performed in triplicate and permeation coefficients Pe (−logPe values, respectively) are calculated using PAMPA Explorer Command Software (Version 3.8).

small intestine of mice = experiment: Pathomorphological evaluation of small intestine; type: in vivo; conditions: 50 mg/kg oral, 14 days
Method: as §2

ABTS•+ assay = conditions: 15 min at 37 °C
Method: ABTS (2,2′-azino-bis (3-ethylbenzthiazoline-6-sulphonic acid) (7.0 mM) was mixed with potassium persulfate (2.45 mM) to obtain the cationic radical (ABTS•+) The solution was diluted in methanol (2 mL ABTS•+ + 58 mL methanol). The absorption at 743 nm of the resulting working solution was 1.1 ± 0.02 AU. Then, 1.425 mL of ABTS•+ working solution was added to 75 μL of the test drugs, and the absorption at 743 nm was measured after 15 min of incubation at 37 °C against methanol. A blank containing 75 μL of water instead of the test extract also was measured against methanol.
(§4) All data are presented as IC50, which gave 50% inhibition of the activities and compared against the activity of Trolox—a common antioxidant, at the same concentrations.

DPPH assay = conditions: 0.1 mM DPPH in methanol, 30 min
Method: DPPH (2,2′-diphenyl-1-picrylhydrazyl radical) assay analysis of pure compounds was conducted by the method described by Brand-Williams et al.. First, 500 μL of the test solutions were added to 500 μL of a freshly prepared solution of 0.1 mM DPPH in methanol and incubated in the dark for 30 min. Then the absorbance at 517 nm (A517) was measured against a mixture of DPPH solution and methanol (1:1) as a control.
as §4

[8] = test system: Fe^2+-asc.—induced lipid peroxidation in brain homogenate; experiment: Fe-induced lipid peroxidation inhibition assay in vitro (TBARS); type: biochemical; conditions: model system of brain homogenate, 10 mM FeCl3 and 10 mM ascorbic acid
Method: Malondialdehyde as a marker of lipid peroxidation was determined by the formation of endogenous lipid peroxidation products, reacting with 2-thiobarbituric acid (TBARS), and detected spectrophotometrically (λmax = 532 nm) adapted by Mileva et al.. The method is based on the reaction of thiobarbituric acid (TBA) with the final products of lipids oxidation and formation of malondialdehyde (MDA). […] After that to the samples was added 0.6 mL a mixture of trichloroacetic acid (TCA)—TCA:HCl:TBA in 2:1:2 ratio and boiled in a water bath. After cooling and centrifugation at 3000 nrp the obtained color complex was read spectrophotometrically at A532 nm against the appropriate blank. The results were expressed in percentage inhibition of lipid peroxidation (received MDA per mg protein content from the control).
as §4

Compound: NNC(=O)c1ccncc1 [INH, isoniazid, reference compound]
- increase of the level of MDA in liver homogenate [1]: more than 35%
- increase of the activity of GPx compared to controls [2]: 35%
- Lobular inflammatory process and hepatocyte loss (liver of mice): not reported
- signs related to initiated fibroblastic process (organ collagenization and fibrosis) (liver of mice): No signs
- Pathomorphological findings in the kidney (kidney of mice): the curved parts of the distal tubules have a lower upholstered epithelium, wide luminal segments, and preserved histological structure
- level of total GSH in liver homogenate [3]: decreased the level of total GSH
- glutathione deficiency ([3]; vs control levels): about 30%
- HCT (male Jcl:ICR mice [4]): 33.3 ± 2.1 %
- Hgb (male Jcl:ICR mice [4]): 112 ± 2.2 g/L
- PLT (male Jcl:ICR mice [4]): 789 ± 183 10^9/L
- RBC (male Jcl:ICR mice [4]): 5.35 ± 0.2 × 10^12/L
- WBC (male Jcl:ICR mice [4]): 9.9 ± 0.54 × 10^9/L
- increase of leukocytes compared to controls (male Jcl:ICR mice [4]): 70%
- reduction in hematocrit compared to the control group (male Jcl:ICR mice [4]): 20%
- reduction in the level of erythrocytes compared to the control group (male Jcl:ICR mice [4]): 28%
- reduction in the level of hemoglobin compared to the control group (male Jcl:ICR mice [4]): 21%
- increase of the activity of SOD in liver [5]: 25%
- decrease of albumin compared to controls (male Jcl:ICR mice [6]): 23%
- decrease of total protein compared to controls (male Jcl:ICR mice [6]): 26%
- direct bilirubin higher than controls (male Jcl:ICR mice [6]): 48%
- increase of ALAT compared to control animals (male Jcl:ICR mice [6]): 67%
- increase of ASAT compared to control animals (male Jcl:ICR mice [6]): 52%
- increase of creatinine compared to controls (male Jcl:ICR mice [6]): 29%
- increase of urea compared to controls (male Jcl:ICR mice [6]): 49%
- total bilirubin higher than controls (male Jcl:ICR mice [6]): 40%
- ALAT (male Jcl:ICR mice [6]; serum): 96.6 ± 3.1 U/L
- ALB (male Jcl:ICR mice [6]; serum): 21.6 ± 1.7 g/L
- ASAT (male Jcl:ICR mice [6]; serum): 126 ± 5.2 U/L
- CREAT (male Jcl:ICR mice [6]; serum): 126.6 ± 8.2 µmol/L
- D-Bil (male Jcl:ICR mice [6]; serum): 6.5 ± 0.44 µmol/L
- GLU (male Jcl:ICR mice [6]; serum): 6.4 ± 0.47 mmol/L
- T-Bil (male Jcl:ICR mice [6]; serum): 12.0 ± 0.38 µmol/L
- TP (male Jcl:ICR mice [6]; serum): 43.2 ± 3.1 g/L
- UA (male Jcl:ICR mice [6]; serum): 196 ± 20.7 µmol/L
- UREA (male Jcl:ICR mice [6]; serum): 13.6 ± 0.36 mmol/L
- −logPe, GIT PAMPA ([7]; at the given experimental conditions (all tested pH), impermeable): > 6
- −logPe, GIT PAMPA ([7]; donor pH = 5.0, acceptor pH 7.4, Pe in 10^−6 cm/s): 6.226
- −logPe, GIT PAMPA ([7]; donor pH = 6.2, acceptor pH 7.4, Pe in 10^−6 cm/s): 6.591
- −logPe, GIT PAMPA ([7]; donor pH = 7.4, acceptor pH 7.4, Pe in 10^−6 cm/s): 6.594
- Pathomorphological findings in the small intestine (small intestine of mice): there were no defects in the epithelium, reaching and exceeding the muscular layer of the epithelium
- villous dullness score (small intestine of mice): 1

Compound: Cc1c(C)c2c(c(C)c1O)CCC(C)(C(=O)O)O2 (centres unmarked) [Trolox, 6-hydroxy-2,5,7,8-tetramethylchroman-2-carboxylic acid, reference compound]
- ABTS Scavenging, IC50 (ABTS•+ assay): 24.8 mg/mL
- DPPH Scavenging, IC50 (DPPH assay): 8.92 mg/mL
- Fe^2+-asc.—Induced LP in Liver, IC50 [8]: 18.2 mg/mL
